ChEMBL document CHEMBL3045892, “Synthesis and evaluation of in vitro antimicrobial activity of novel 2,3-disubstituted-4-thiazolidinones from fatty acid hydrazides” (2013)
In brackets after ≈: the same amount, converted by molar mass.

Key:
Assay type in all cases: functional
Aspergillus fumigatus [1] = assay: Antifungal activity against Aspergillus fumigatus after 48 hr
Candida albicans [2] = assay: Antifungal activity against Candida albicans after 48 hr
Talaromyces marneffei [3] = assay: Antifungal activity against Talaromyces marneffei after 48 hr
Talaromyces marneffei [4] = assay: Antifungal activity against Talaromyces marneffei incubated for 48 hr followed by subculturing measured after 48 hr
Escherichia coli [5] = assay: Antibacterial activity against Escherichia coli ATCC 25922 after 24 hr by broth dilution method; conditions: ATCC 25922, 24 h
Aspergillus fumigatus [6] = assay: Antifungal activity against Aspergillus fumigatus by disk diffusion method
Pseudomonas aeruginosa [7] = assay: Antibacterial activity against Pseudomonas aeruginosa ATCC 27853 incubated for 24 hr followed by subculturing measured after 18 to 24 hr
Aspergillus fumigatus [8] = assay: Antifungal activity against Aspergillus fumigatus incubated for 48 hr followed by subculturing measured after 48 hr
Escherichia coli [9] = assay: Antibacterial activity against Escherichia coli ATCC 25922 after 24 hr by disk diffusion method
Candida albicans [10] = assay: Antifungal activity against Candida albicans incubated for 48 hr followed by subculturing measured after 48 hr
[11] = system: Trichophyton mentagrophytes; assay: Antifungal activity against Trichophyton mentagrophytes by disk diffusion method
Pseudomonas aeruginosa [12] = assay: Antibacterial activity against Pseudomonas aeruginosa ATCC 27853 after 24 hr by disk diffusion method
Klebsiella pneumoniae [13] = assay: Antibacterial activity against Klebsiella pneumoniae clinical isolate incubated for 24 hr followed by subculturing measured after 18 to 24 hr
Klebsiella pneumoniae [14] = assay: Antibacterial activity against Klebsiella pneumoniae clinical isolate after 24 hr by disk diffusion method
Streptococcus pyogenes [15] = assay: Antibacterial activity against Streptococcus pyogenes incubated for 24 hr followed by subculturing measured after 18 to 24 hr
Streptococcus pyogenes [16] = assay: Antibacterial activity against Streptococcus pyogenes after 24 hr by disk diffusion method
Candida albicans [17] = assay: Antifungal activity against Candida albicans by disk diffusion method
Escherichia coli [18] = assay: Antibacterial activity against Escherichia coli ATCC 25922 incubated for 24 hr followed by subculturing measured after 18 to 24 hr
Streptococcus pyogenes [19] = assay: Antibacterial activity against Streptococcus pyogenes after 24 hr by broth dilution method
[20] = system: Trichophyton mentagrophytes; assay: Antifungal activity against Trichophyton mentagrophytes incubated for 48 hr followed by subculturing measured after 48 hr
Pseudomonas aeruginosa [21] = assay: Antibacterial activity against Pseudomonas aeruginosa ATCC 27853 after 24 hr by broth dilution method; conditions: ATCC 27853, 24 h
[22] = system: Trichophyton mentagrophytes; assay: Antifungal activity against Trichophyton mentagrophytes after 48 hr
Talaromyces marneffei [23] = assay: Antifungal activity against Talaromyces marneffei by disk diffusion method
Klebsiella pneumoniae [24] = assay: Antibacterial activity against Klebsiella pneumoniae clinical isolate after 24 hr by broth dilution method
Escherichia coli [25] = assay: Antibacterial activity against Escherichia coli ATCC 25922 at 30 uig/disk after 24 hr by disk diffusion method
Staphylococcus aureus [26] = assay: Antibacterial activity against methicillin-resistant Staphylococcus aureus at 30 ug/disk after 24 hr by disk diffusion method; conditions: read-out: DIZ
Staphylococcus aureus [27] = assay: Antibacterial activity against methicillin-resistant Staphylococcus aureus after 24 hr by broth dilution method
Streptococcus pyogenes [28] = assay: Antibacterial activity against Streptococcus pyogenes at 30 ug/disk after 24 hr by disk diffusion method; conditions: read-out: DIZ
Staphylococcus aureus [29] = assay: Antibacterial activity against methicillin-resistant Staphylococcus aureus incubated for 24 hr followed by subculturing measured after 18 to 24 hr
Klebsiella pneumoniae [30] = assay: Antibacterial activity against Klebsiella pneumoniae clinical isolate at 30 ug/disk after 24 hr by disk diffusion method; conditions: read-out: DIZ
Pseudomonas aeruginosa [31] = assay: Antibacterial activity against Pseudomonas aeruginosa ATCC 27853 at 30 ug/disk after 24 hr by disk diffusion method; conditions: ATCC 27853, 24 h, read-out: DIZ

Structure (SMILES)	MIC (Aspergillus fumigatus [1])	MIC (Candida albicans [2])	MIC (Talaromyces marneffei [3])	MFC (Talaromyces marneffei [4])	MIC (Escherichia coli [5])	diameter of the inhibition zone (DIZ) (Aspergillus fumigatus [6])	MBC (Pseudomonas aeruginosa [7])	MFC (Aspergillus fumigatus [8])	MFC (Candida albicans [10])	diameter of the inhibition zone (DIZ) [11]	MBC (Klebsiella pneumoniae [13])	MBC (Streptococcus pyogenes [15])	diameter of the inhibition zone (DIZ) (Candida albicans [17])	MBC (Escherichia coli [18])	MIC (Streptococcus pyogenes [19])	MFC [20]	MIC (Pseudomonas aeruginosa [21])	MIC [22]	diameter of the inhibition zone (DIZ) (Talaromyces marneffei [23])	MIC (Klebsiella pneumoniae [24])	also measured
CCCCC/C=C\CC[C@H](O)CCCCCCCC(=O)NN1C(=O)CSC1c1ccc(Cl)cc1 (some centres not stated)	25 µg/mL (≈ 49.1 µM)	25 µg/mL (≈ 49.1 µM)	25 µg/mL (≈ 49.1 µM)	100 µg/mL (≈ 196 µM)	50 µg/mL (≈ 98.2 µM)	18.7 mm	100 µg/mL (≈ 196 µM)	100 µg/mL (≈ 196 µM)	50 µg/mL (≈ 98.2 µM)	14.8 mm	> 100 µg/mL	100 µg/mL (≈ 196 µM)	21.2 mm	100 µg/mL (≈ 196 µM)	25 µg/mL (≈ 49.1 µM)	100 µg/mL (≈ 196 µM)	50 µg/mL (≈ 98.2 µM)	25 µg/mL (≈ 49.1 µM)	13.3 mm	50 µg/mL (≈ 98.2 µM)	diameter of the inhibition zone (DIZ) (Escherichia coli [9]): 14.3 mm; diameter of the inhibition zone (DIZ) (Pseudomonas aeruginosa [12]): 13.9 mm; diameter of the inhibition zone (DIZ) (Klebsiella pneumoniae [14]): 13.9 mm; diameter of the inhibition zone (DIZ) (Streptococcus pyogenes [16]): 15.5 mm
CCCCCC[C@@H](O)C/C=C\CCCCCCCC(=O)NN1C(=O)CSC1c1ccc(Cl)cc1 (some centres not stated)	25 µg/mL (≈ 49.1 µM)	25 µg/mL (≈ 49.1 µM)	25 µg/mL (≈ 49.1 µM)	100 µg/mL (≈ 196 µM)	50 µg/mL (≈ 98.2 µM)	20.6 mm	100 µg/mL (≈ 196 µM)	50 µg/mL (≈ 98.2 µM)	50 µg/mL (≈ 98.2 µM)	18.2 mm	100 µg/mL (≈ 196 µM)	100 µg/mL (≈ 196 µM)	23.7 mm	> 100 µg/mL	50 µg/mL (≈ 98.2 µM)	50 µg/mL (≈ 98.2 µM)	50 µg/mL (≈ 98.2 µM)	25 µg/mL (≈ 49.1 µM)	14.4 mm	25 µg/mL (≈ 49.1 µM)	diameter of the inhibition zone (DIZ) (Escherichia coli [9]): 14.5 mm; diameter of the inhibition zone (DIZ) (Pseudomonas aeruginosa [12]): 14.1 mm; diameter of the inhibition zone (DIZ) (Klebsiella pneumoniae [14]): 14.5 mm; diameter of the inhibition zone (DIZ) (Streptococcus pyogenes [16]): 17.1 mm
CCCCCCCC/C=C\CCCCCCCC(=O)NN1C(=O)CSC1c1ccc(Cl)cc1 (configuration not stated)	12.5 µg/mL (≈ 25.3 µM)	12.5 µg/mL (≈ 25.3 µM)	25 µg/mL (≈ 50.7 µM)	50 µg/mL (≈ 101 µM)	25 µg/mL (≈ 50.7 µM)	21.4 mm	100 µg/mL (≈ 203 µM)	50 µg/mL (≈ 101 µM)	50 µg/mL (≈ 101 µM)	17.6 mm	50 µg/mL (≈ 101 µM)	100 µg/mL (≈ 203 µM)	24.2 mm	100 µg/mL (≈ 203 µM)	25 µg/mL (≈ 50.7 µM)	50 µg/mL (≈ 101 µM)	50 µg/mL (≈ 101 µM)	25 µg/mL (≈ 50.7 µM)	14.1 mm	25 µg/mL (≈ 50.7 µM)	diameter of the inhibition zone (DIZ) (Escherichia coli [9]): 17.6 mm; diameter of the inhibition zone (DIZ) (Pseudomonas aeruginosa [12]): 19.9 mm; diameter of the inhibition zone (DIZ) (Klebsiella pneumoniae [14]): 17.1 mm; diameter of the inhibition zone (DIZ) (Streptococcus pyogenes [16]): 18.1 mm
CCCCCCCCCCCCCCCC(=O)NN1C(=O)CSC1c1ccc(Cl)cc1 (configuration not stated)	6.25 µg/mL (≈ 13.4 µM)	6.25 µg/mL (≈ 13.4 µM)	12.5 µg/mL (≈ 26.8 µM)	25 µg/mL (≈ 53.5 µM)	12.5 µg/mL (≈ 26.8 µM)	22.6 mm	25 µg/mL (≈ 53.5 µM)	25 µg/mL (≈ 53.5 µM)	12.5 µg/mL (≈ 26.8 µM)	19.5 mm	50 µg/mL (≈ 107 µM)	25 µg/mL (≈ 53.5 µM)	27.3 mm	25 µg/mL (≈ 53.5 µM)	12.5 µg/mL (≈ 26.8 µM)	25 µg/mL (≈ 53.5 µM)	12.5 µg/mL (≈ 26.8 µM)	6.25 µg/mL (≈ 13.4 µM)	15.2 mm	12.5 µg/mL (≈ 26.8 µM)	diameter of the inhibition zone (DIZ) (Escherichia coli [9]): 23.3 mm; diameter of the inhibition zone (DIZ) (Pseudomonas aeruginosa [12]): 27.2 mm; diameter of the inhibition zone (DIZ) (Klebsiella pneumoniae [14]): 21.4 mm; diameter of the inhibition zone (DIZ) (Streptococcus pyogenes [16]): 20.4 mm
C=CCCCCCCCCC(=O)NN1C(=O)CSC1c1ccc(Cl)cc1 (configuration not stated)	12.6 µg/mL (≈ 31.8 µM)	12.5 µg/mL (≈ 31.6 µM)	12.5 µg/mL (≈ 31.6 µM)	25 µg/mL (≈ 63.3 µM)	25 µg/mL (≈ 63.3 µM)	22.2 mm	25 µg/mL (≈ 63.3 µM)	25 µg/mL (≈ 63.3 µM)	25 µg/mL (≈ 63.3 µM)	19.2 mm	50 µg/mL (≈ 127 µM)	50 µg/mL (≈ 127 µM)	27.1 mm	50 µg/mL (≈ 127 µM)	25 µg/mL (≈ 63.3 µM)	50 µg/mL (≈ 127 µM)	12.5 µg/mL (≈ 31.6 µM)	12.5 µg/mL (≈ 31.6 µM)	14.6 mm	25 µg/mL (≈ 63.3 µM)	diameter of the inhibition zone (DIZ) (Escherichia coli [9]): 19.8 mm; diameter of the inhibition zone (DIZ) (Pseudomonas aeruginosa [12]): 22.3 mm; diameter of the inhibition zone (DIZ) (Klebsiella pneumoniae [14]): 18.3 mm; diameter of the inhibition zone (DIZ) (Streptococcus pyogenes [16]): 20.2 mm
O=C(N[C@H](CO)[C@H](O)c1ccc([N+](=O)[O-])cc1)C(Cl)Cl [CHLORAMPHENICOL]	–	–	–	–	6.25 µg/mL (≈ 19.3 µM)	–	25 µg/mL (≈ 77.4 µM)	–	–	–	25 µg/mL (≈ 77.4 µM)	12.5 µg/mL (≈ 38.7 µM)	–	12.5 µg/mL (≈ 38.7 µM)	12.5 µg/mL (≈ 38.7 µM)	–	12.5 µg/mL (≈ 38.7 µM)	–	–	6.25 µg/mL (≈ 19.3 µM)	diameter of the inhibition zone (DIZ) (Escherichia coli [25]): 27 mm; zone of inhibition at 30 µg/disc (Staphylococcus aureus [26]): 22 mm; MIC (Staphylococcus aureus [27]): 6.25 µg/mL (≈ 19.3 µM); zone of inhibition at 30 µg/disc (Streptococcus pyogenes [28]): 23 mm; MBC (Staphylococcus aureus [29]): 12.5 µg/mL (≈ 38.7 µM); zone of inhibition at 30 µg/disc (Klebsiella pneumoniae [30]): 19 mm; zone of inhibition at 30 µg/disc (Pseudomonas aeruginosa [31]): 32 mm
COC1=CC(=O)C[C@@H](C)[C@]12Oc1c(Cl)c(OC)cc(OC)c1C2=O [GRISEOFULVIN]	12.5 µg/mL (≈ 35.4 µM)	6.25 µg/mL (≈ 17.7 µM)	12.5 µg/mL (≈ 35.4 µM)	25 µg/mL (≈ 70.9 µM)	–	27 mm	–	12.5 µg/mL (≈ 35.4 µM)	25 µg/mL (≈ 70.9 µM)	24 mm	–	–	30 mm	–	–	25 µg/mL (≈ 70.9 µM)	–	6.25 µg/mL (≈ 17.7 µM)	20 mm	–	–
